Key:
Huh7 (liver) = experiment: Cytotoxicity on human cells, automated nuclei counting: Huh7; type: cell-based; conditions: Huh-7, exposed 24 h to 48 h, 0.1 to 25 μM
Method: (§1) Cytotoxicity: This method is based on an automated imaging analysis. 4.10^3 cells were cultivated on 96-well plates and left for 24 hours so as to bind, to spread and proliferate.
(§2) All the cell lines were cultivated in a DMEM or RPMI (Invitrogen) medium. All these media were completed with antibiotics (penicillin-streptomycin) (Lonza) and 10% by volume of fetal calf serum (Invitrogen). The cells were cultivated at 37° C. with 5% of CO2. The treatments with the molecules to be tested were carried out with increasing concentrations. The control experiments were also carried out by using suitable dilutions of DMSO (maximum 1% DMSO).

Caco (colon) = experiment: Cytotoxicity on human cells, automated nuclei counting: Caco; type: cell-based; conditions: exposed 24 h to 48 h, 0.1 to 25 μM
Method: as §1, §2

MDA-MB 231 (breast) = experiment: Cytotoxicity on human cells, automated nuclei counting: MDA-MB 231; type: cell-based; conditions: MDA-MB 231 cells, exposed 24 h to 48 h, 0.1 to 25 μM
Method: as §1, §2

HCT 116 (colon) = experiment: Cytotoxicity on human cells, automated nuclei counting: HCT 116; type: cell-based; conditions: HCT 116 cells, exposed 24 h to 48 h, 0.1 to 25 μM
Method: as §1, §2

PC3 (prostate) = experiment: Cytotoxicity on human cells, automated nuclei counting: PC3; type: cell-based; conditions: PC-3, exposed 24 h to 48 h, 0.1 to 25 μM
Method: as §1, §2

NCI (lung) = experiment: Cytotoxicity on human cells, automated nuclei counting: NCI; type: cell-based; conditions: exposed 24 h to 48 h, 0.1 to 25 μM
Method: as §1, §2

fibroblast = experiment: Cytotoxicity on human cells, automated nuclei counting: fibroblast; type: cell-based; conditions: exposed 24 h to 48 h, 0.1 to 25 μM
Method: as §1, §2

CDK5/D25 = target: T1, CDK5/D25 (Homo sapiens, UniProt Q00535); experiment: CDK5 kinase inhibition (33P-ATP, histone H1); type: biochemical; conditions: buffer C, 30° C., 15 μM ATP, read-out: IC50 μM Kinases CDK5
T1 construct: made in house
Method: The protein kinase inhibition activities of the compounds of the invention are tested according to the following general procedure:
Buffer C: 60 mM β-glycerophosphate, 15 mM p-nitrophenyl-phosphate, 25 mM Mops (pH 7.2), 5 mM EGTA, 15 mM mgCl2, 1 mM DTT, 1 mM sodium vanadate and 1 mM phenylphosphate.
The controls were made with suitable dilutions of DMSO.
ATP (3.000 Ci/mmol.; 10 mCi/mL) in a final volume of 30 μL. After 30 mins of incubation at 30° C., 25 μL of supernatant aliquots were deposited on phosphocellulose Whatman P81 paper pieces of 2.5×3 cm, and after 20 seconds, the filters were washed five times (for at least 5 minutes each time) in a solution of 10 mL of phosphoric acid/1 litre of water. The wet filters were counted in the presence of 1 mL of scintillation fluid ACS (Amersham).

GSK-3αβ = experiment: GSK-3 kinase inhibition (GS-1 substrate); conditions: read-out: IC50 μM Kinases GSK3, buffer A, 30° C., 15 μM ATP
DYRK1A = DYRK1A (Homo sapiens, UniProt Q13627); experiment: DYRK1A kinase inhibition (Woodtide substrate)

T1 sequence (Q00535 whole entry): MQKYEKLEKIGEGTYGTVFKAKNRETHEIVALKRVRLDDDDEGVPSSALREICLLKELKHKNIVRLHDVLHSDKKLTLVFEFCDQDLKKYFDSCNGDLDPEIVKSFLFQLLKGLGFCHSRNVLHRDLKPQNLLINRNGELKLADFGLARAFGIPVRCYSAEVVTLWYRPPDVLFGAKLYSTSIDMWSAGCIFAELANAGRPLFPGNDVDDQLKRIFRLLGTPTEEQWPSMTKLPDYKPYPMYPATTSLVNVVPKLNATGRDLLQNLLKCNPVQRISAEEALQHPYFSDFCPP
T1 sequence (Q15078 99-307 partner limits assumed): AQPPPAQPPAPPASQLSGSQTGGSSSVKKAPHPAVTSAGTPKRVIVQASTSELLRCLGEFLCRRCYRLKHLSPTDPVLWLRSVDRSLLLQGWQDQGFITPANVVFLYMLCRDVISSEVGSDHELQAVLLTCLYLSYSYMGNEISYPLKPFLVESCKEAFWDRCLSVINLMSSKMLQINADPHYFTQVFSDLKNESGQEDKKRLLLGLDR

IC50 (CDK5/D25) [µM] | melting point [°C] | IC50 (GSK-3αβ) [µM] | IC50 (DYRK1A) [µM] | Compound | IC50 (Huh7 (liver)) [µM] | IC50 (Caco (colon)) [µM] | IC50 (MDA-MB 231 (breast)) [µM] | IC50 (HCT 116 (colon)) [µM] | IC50 (PC3 (prostate)) [µM] | IC50 (NCI (lung)) [µM] | IC50 (fibroblast) [µM]
0.13 | 225 | 0.076 | 21 | O=C(Nc1ccc(Br)cn1)Nc1cccc2c1C1CCCCN1C2=O (stereo not drawn) [Compound 18, 1-(5-Bromopyridin-2-yl)-3-(6-oxo-1,2,3,4,6,10b-hexahydropyrido[2,1-a]isoindol-10-yl)urea] | > 25 | > 25 | > 25 | > 25 | > 25 | > 25 | > 25
0.04 | 218 to 220 | 0.043 | 3.4 | O=C(Nc1cccc(Br)n1)Nc1cccc2c1C1CCCCN1C2=O (stereo not drawn) [Compound 19, 1-(6-Bromopyridin-2-yl)-3-(6-oxo-1,2,3,4,6,10b-hexahydropyrido[2,1-a]isoindol-10-yl)urea] | > 25 | > 25 | > 25 | > 25 | > 25 | > 25 | > 25
0.9 | 254 | 0.026 | 3.5 | O=C(Nc1cccc(F)n1)Nc1cccc2c1C1CCCCN1C2=O (stereo not drawn) [Compound 23, 1-(6-Fluoropyridin-2-yl)-3-(6-oxo-1,2,3,4,6,10b-hexahydropyrido[2,1-a]isoindol-10-yl)urea] | 0.1 | 0.03 | 0.03 | < 0.01 | 0.03 | 0.3 | 0.3
1.5 | 218 | 0.36 | 71 | O=C(Nc1ccncn1)Nc1cccc2c1C1CCCCN1C2=O (stereo not drawn) [Compound 32, 1-(6-Oxo-1,2,3,4,6,10b-hexahydropyrido[2,1-a]isoindol-10-yl)-3-(pyrimidin-4-yl)urea] |  |  |  |  |  |  | 
 | 246 | 4.3 | > 100 | O=C(Nc1cccc2c1C1CCCCN1C2=O)Nc1nc(Cl)c(Cl)c(Cl)c1Cl (stereo not drawn) [Compound 33, 1-(6-oxo-1,2,3,4,6,10b-hexahydropyrido[2,1-a]isoindol-10-yl)-3-(perchloro-pyridin-2-yl)urea] | 0.25 | 1.5 | 0.5 | 0.5 | 1 | 0.8 | 0.5
≥ 10 | 135 | 1.9 | > 10 | Cn1ccc(NC(=O)Nc2cccc3c2C2CC4(CCN2C3=O)SCCS4)n1 (stereo not drawn) [Compound 40, 1-(6′-Oxo-3′,4′,6′,10b′-tetrahydro-1′H-spiro[[1,3]dithiolane-2,2′-pyrido[2,1-a]isoindole]-10′-yl)-3-(1-Methyl-1H-pyrazol-3-yl)urea] |  |  |  |  |  |  | 
0.51 | 233 | 0.31 | > 10 | Cn1ccc(NC(=O)Nc2cccc3c2C2CCCCN2C3=O)n1 (stereo not drawn) [Compound 41, 1-(1-Methyl-1H-pyrazol-3-yl)-3-(6-oxo-1,2,3,4,6,10b-hexahydro-pyrido[2,1-a]isoindol-10-yl)-urea] |  |  |  |  |  |  | 
> 10 |  | 4 | > 10 | COc1cc(NC(=O)Nc2cccc3c2C2CC4(CCN2C3=O)SCCS4)nc2ccccc12 (stereo not drawn) [Compound 49] | 5 | 15 | 20 | 10 | 15 | 10 | 25
0.55 |  | 0.081 | > 10 | COC1CCN2C(=O)c3cccc(NC(=O)Nc4ccccn4)c3C2C1 (stereo not drawn) [Compound 53, 1-(2-Methoxy-6-oxo-1,2,3,4,6,10b-hexahydropyrido[2,1-a]isoindol-10-yl)-3-(pyridin-2-yl)urea] | 0.7 | 2.5 | 2 | 1 | 2 | 4 | 3
4.3 |  | 0.32 | > 10 | COC1CCN2C(=O)c3cccc(NC(=O)Nc4cccc(C)n4)c3C2C1 (stereo not drawn) [Compound 56, 1-(2-Methoxy-6-oxo-1,2,3,4,6,10b-hexahydropyrido[2,1-a]isoindol-10-yl)-3-(6-methylpyri-din-2-yl)urea] | 3 | 6 | 7 | 3 | 6 | 10 | 7
1.1 |  |  | > 10 | COC1CCN2C(=O)c3cccc(NC(=O)Nc4ncccc4C)c3C2C1 (stereo not drawn) [Compound 57, 1-(2-Methoxy-6-oxo-1,2,3,4,6,10b-hexahydropyrido[2,1-a]isoindol-10-yl)-3-(3-methylpyridin-2-yl)urea] | 1.2 | 2 | 2.2 | 1 | 1.2 | 4 | 3
0.32 |  | 0.032 | > 10 | COC1CCN2C(=O)c3cccc(NC(=O)Nc4cc(C)ccn4)c3C2C1 (stereo not drawn) [Compound 58, 1-(2-methoxy-6-oxo-1,2,3,4,6,10b-hexahydropyrido[2,1-a]isoindol-10-yl)-3-(4-methylpyridin-2-yl)urea] | 0.1 | 0.5 | 0.3 | 0.03 | 0.4 | 0.4 | 0.5
2.3 |  |  | > 10 | COC1CCN2C(=O)c3cccc(NC(=O)Nc4ccn(C)n4)c3C2C1 (stereo not drawn) [Compound 60, 1-(2-methoxy-6-oxo-1,2,3,4,6,10b-hexahydropyrido[2,1-a]isoindol-10-yl)-3-(1-methyl-1H-pyrazol-3-yl)urea] | 2 | 15 | 10 | 4 | 7 | 2 | 15
 | 195 | 2.3 | 47 | O=C1c2cccc(NC(=S)Nc3ccccn3)c2C2CCCCN12 (stereo not drawn) [Compound 62, 1-(6-Oxo-1,2,3,4,6,10b-hexahydropyrido[2,1-a]isoindol-10-yl)-3-(pyridin-2-yl)thiourea] | > 25 | 20 | 25 | 8 | 20 | > 25 | > 25
8.7 |  | 2.1 | > 100 | O=C1c2cccc(NC(=S)Nc3ccc(Br)cn3)c2C2CCCCN12 (stereo not drawn) [Compound 66, 1-(5-Bromopyridin-2-yl)-3-(6-oxo-1,2,3,4,6,10b-hexahydropyrido[2,1-a]isoindol-10-yl)thiourea] | > 25 | 2 | 2 | 3 | > 25 | 25 | 4
> 10 | > 260 | 1.3 | ≥ 10 | O=C1CCN2C(=O)c3cccc(NC(=O)Nc4cc(O)c5ccccc5n4)c3C2C1 (stereo not drawn) [Compound 103, 1-(2,6-Dioxo-1,2,3,4,6,10b-hexahydropyrido[2,1-a]isoindol-10-yl)-3-(4-hydroxyquinolin-2-yl)urea] |  |  |  |  |  |  | 
> 10 | > 260 | 2.5 | ≥ 10 | O=C(Nc1cc(O)c2ccccc2n1)Nc1cccc2c1C1CC(O)CCN1C2=O (stereo not drawn) [Compound 110, 1-(2-Hydroxy-6-oxo-1,2,3,4,6,10b-hexahydropyrido[2,1-a]isoindol-10-yl)-3-(4-hydroxyquinolin-2-yl)urea] |  |  |  |  |  |  | 
 | 136 | 0.4 | > 10 | CC(C)(C)OC(=O)n1ccc(NC(=O)Nc2cccc3c2C2CCCCN2C3=O)n1 (stereo not drawn) [Compound 118] |  |  |  |  |  |  | 
 | 185 | 0.47 | > 10 | O=C(Nc1cc[nH]n1)Nc1cccc2c1C1CCCCN1C2=O (stereo not drawn) [Compound 119, 1-(6-Oxo-1,2,3,4,6,10b-hexahydro-pyrido[2,1-a]isoindol-10-yl)-3-(1H-pyrazol-3-yl)-urea] |  |  |  |  |  |  | 

— patent publication US20120095022A1, “DERIVATIVES OF 10-AMINO-1,2,3,4-TETRAHYDROPYRIDO[2,1-A]ISOINDOL-6(10BH)-ONES, METHOD FOR PREPARATION THEREOF AND THERAPEUTIC USES THEREOF” (UNIVERSITE D'ORLEANS, priority 2009, published 2012)
